Measured values reported in US20250171431A1, “HETEROCYCLIC INHIBITORS OF IGF-1R FOR TREATMENT OF DISEASE” (HORIZON THERAPEUTICS IRELAND DAC, priority 2023, published 2025).

Tests used:
IGF-1R [1] = biological target: T1, IGF-1R (Homo sapiens (Human), UniProt P08069); test: Example B-1: IGF-1R Assay (PC3 cells, IGF1 stimulation, AlphaLISA); type: cell-based; conditions: 200 ng/mL IGF1 stimulation, read-out: Biological Activity against IGF-1R IC50
Procedure, shortened: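 PC3 cells were serum-starved 2 h, treated with serially diluted compounds for 2 h, then stimulated with IGF1 (200 ng/mL final) for 30 min. Lysates were read by AlphaLISA; % inhibition was calculated relative to vehicle and EC80 controls, with IC50 values binned into ranges.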
Target sequence in this assay (P08069 31-1367): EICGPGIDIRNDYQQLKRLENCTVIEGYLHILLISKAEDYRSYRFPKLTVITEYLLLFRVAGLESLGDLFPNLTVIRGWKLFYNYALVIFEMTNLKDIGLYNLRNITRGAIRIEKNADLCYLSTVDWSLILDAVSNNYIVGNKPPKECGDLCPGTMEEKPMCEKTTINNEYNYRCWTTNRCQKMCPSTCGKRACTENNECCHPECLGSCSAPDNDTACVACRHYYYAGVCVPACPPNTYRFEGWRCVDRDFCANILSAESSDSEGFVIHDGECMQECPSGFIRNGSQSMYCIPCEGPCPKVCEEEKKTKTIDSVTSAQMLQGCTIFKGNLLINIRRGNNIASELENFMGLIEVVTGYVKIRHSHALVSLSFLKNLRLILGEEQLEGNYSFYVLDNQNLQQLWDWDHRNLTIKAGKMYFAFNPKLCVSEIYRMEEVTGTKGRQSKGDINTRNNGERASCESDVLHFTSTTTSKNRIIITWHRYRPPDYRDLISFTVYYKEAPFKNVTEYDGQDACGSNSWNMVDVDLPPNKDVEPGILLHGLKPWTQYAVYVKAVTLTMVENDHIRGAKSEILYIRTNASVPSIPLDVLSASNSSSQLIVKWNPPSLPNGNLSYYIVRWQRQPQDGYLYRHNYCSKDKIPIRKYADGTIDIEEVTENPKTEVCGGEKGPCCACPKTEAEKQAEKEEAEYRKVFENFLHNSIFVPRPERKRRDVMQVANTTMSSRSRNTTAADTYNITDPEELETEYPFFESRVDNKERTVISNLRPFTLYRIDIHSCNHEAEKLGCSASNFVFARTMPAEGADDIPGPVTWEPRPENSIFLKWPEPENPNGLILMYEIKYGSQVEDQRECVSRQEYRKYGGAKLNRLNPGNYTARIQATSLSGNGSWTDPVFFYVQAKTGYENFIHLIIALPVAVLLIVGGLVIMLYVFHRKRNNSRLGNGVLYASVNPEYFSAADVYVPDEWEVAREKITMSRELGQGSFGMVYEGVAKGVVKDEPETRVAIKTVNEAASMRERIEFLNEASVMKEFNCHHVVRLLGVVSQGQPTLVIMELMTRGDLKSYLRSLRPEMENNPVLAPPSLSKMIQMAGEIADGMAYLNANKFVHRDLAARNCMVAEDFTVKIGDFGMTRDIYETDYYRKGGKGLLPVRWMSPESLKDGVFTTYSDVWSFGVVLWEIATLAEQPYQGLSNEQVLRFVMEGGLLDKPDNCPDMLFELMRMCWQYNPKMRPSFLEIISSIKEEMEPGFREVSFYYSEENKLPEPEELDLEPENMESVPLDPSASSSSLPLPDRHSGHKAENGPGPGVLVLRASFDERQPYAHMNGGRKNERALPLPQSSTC

IGF-1R [2] = biological target: T1, IGF-1R; test: Example B-2: IGF-1R Assay (PathHunter cell lines, EC80 agonist challenge); type: cell-based; conditions: read-out: IC50 (Biological Activity against IGF-1R)
Protocol: PathHunter cell lines were expanded from freezer stocks according to standard procedures. Cells were seeded in a total volume of 20 μL into white walled, 384-well microplates and incubated for the appropriate time prior to testing.
Cells are pre-incubated with compound followed by EC80 agonist challenge as follows: • 1. Intermediate dilution of sample stocks was performed to generate 5× sample in assay buffer. • 2. 5 μL of 5× sample was added to cells and incubated at 37° C. for 60 minutes. Vehicle concentration was 1%. • 3. 5 μL of 6×EC80 agonist in assay buffer was added to the cells and incubated at room temperature for 3 hours.
Assay signal was generated through a single addition of 12.5 or 15 μL (50% v/v) of PathHunter Detection reagent cocktail for agonist and antagonist assays respectively, followed by a one hour incubation at room temperature. Microplates were read following signal generation with a PerkinElmer Envision™ instrument for chemilumine-scent signal detection.
Compound activity was analyzed using CBIS data analysis suite (ChemInnovation, CA). Percentage inhibition was calculated using the following formula: % Inhibition=100%×(1−(mean RLU of test sample−mean RLU of vehicle control)/(mean RLU of EC80 control−mean RLU of vehicle control)). The activity for representative examples of the invention is shown in the following table, wherein A: IC50≤500 nM; B: 500 nM<IC50≤2 μM; C: […]≤10 μM; D: IC50>[…].
Target sequence in this assay (P08069 31-1367, species assumed): as the sequence (P08069 31-1367) above

Row | Structure (SMILES) | IC50 (IGF-1R [1]) [nM] | IC50 (IGF-1R [2]) [nM]
1 | COc1cc(N2CCNC3(CC3)C2)ncc1Nc1nccc(Nc2cc3cccc(F)c3[nH]c2=O)n1 [Compound 221, 3-(2-{6-(4,7-diaza-7-spiro[2.5]octyl)-4-methoxy-3-pyridylamino}-4-pyrimidinylamino)-8-fluoro-1,2-dihydro-2-quinolinone] | ≤ 500 | 500 to 2000
2 | Clc1ccc2ncc(Nc3ccnc(Nc4ccc5c(c4)OCCO5)n3)cc2c1 [Compound 170, 4-(6-chloro-3-quinolylamino)-2-(2,3-dihydro-1,4-benzodioxin-6-ylamino)pyrimidine] | 500 to 2000 | 500 to 2000
3 | c1ccc2ncc(Nc3ccnc(Nc4ccc5ccn(CC6CCCC6)c5c4)n3)cc2c1 [Compound 502, 2-[1-(cyclopentylmethyl)-6-indolylamino]-4-(3-quinolylamino)pyrimidine] | ≤ 500 | ≤ 500
4 | c1ccc2ncc(Nc3ccnc(Nc4ccc5c(ccn5CC5CCOCC5)c4)n3)cc2c1 [Compound 501, 4-(3-quinolylamino)-2-{1-[(tetrahydro-2H-pyran-4-yl)methyl]-5-indolylamino}pyrimidine] | 500 to 2000 | 500 to 2000
5 | CN(C)CC1CN(C)c2cc(Nc3nccc(Nc4cnc5cc(F)c(F)cc5c4)n3)ccc2O1 (stereo not shown) [Compound 148, N4-(6,7-difluoroquinolin-3-yl)-N2-(2-((dimethylamino)methyl)-4-methyl-3,4-dihydro-2H-benzo[b][1,4]oxazin-6-yl)pyrimidine-2,4-diamine] | ≤ 500 | ≤ 500
6 | CN(C)CC(=O)N1CCc2ccc(Nc3nccc(Nc4cnc5c(F)c(F)ccc5c4)n3)cc21 [Compound 138, 1-(6-((4-((7,8-difluoroquinolin-3-yl)amino)pyrimidin-2-yl)amino)indolin-1-yl)-2-(dimethylamino)ethan-1-one] | ≤ 500 | ≤ 500
7 | COc1cc(N2CCN(CC(F)F)CC2)ncc1Nc1nccc(Nc2cc3cccc(F)c3[nH]c2=O)n1 [Compound 217, 3-(2-{6-[4-(2,2-difluoroethyl)-1-piperazinyl]-4-methoxy-3-pyridylamino}-4-pyrimidinylamino)-8-fluoro-1,2-dihydro-2-quinolinone] | 500 to 2000 | > 10000
8 | CN(C)CC(=O)N1CCc2ncc(Nc3nccc(Nc4cnc5ccccc5c4)n3)cc21 [Compound 137, 2-(dimethylamino)-1-(6-((4-(quinolin-3-ylamino)pyrimidin-2-yl)amino)-2,3-dihydro-1H-pyrrolo[3,2-b]pyridin-1-yl)ethan-1-one] | ≤ 500 | ≤ 500
9 | CN(C)CC1COc2cc(Nc3nccc(Nc4cc5ccccc5nc4C(N)=O)n3)ccc2O1 (stereo not shown) [Compound 171, 3-((2-((2-((dimethylamino)methyl)-2,3-dihydrobenzo[b][1,4]dioxin-6-yl)amino)pyrimidin-4-yl)amino)quinoline-2-carboxamide] | ≤ 500 | ≤ 500
10 | COc1cc(Nc2nccc(Nc3cnc4c(c3)OCCO4)n2)ccc1O[C@H]1C[C@@H](N(C)C)C1 [Compound 200, 4-(2,3-dihydro-1,4-dioxa-5-aza-7-naphthylamino)-2-{3-methoxy-4-[(1s,3s)-3-(dimethylamino)cyclobutoxy]phenylamino}pyrimidine] | ≤ 500 | ≤ 500
11 | CN1CCOc2ccc(Nc3nccc(Nc4cnc5cc(F)c(F)cc5c4)n3)cc21 [Compound 150, N4-(6,7-difluoroquinolin-3-yl)-N2-(4-methyl-3,4-dihydro-2H-benzo[b][1,4]oxazin-6-yl)pyrimidine-2,4-diamine] | 500 to 2000 | 500 to 2000
12 | CN(C)CC1COc2ccc(Nc3nccc(Nc4cnc5ccc(Cl)cc5c4)n3)cc2O1 (stereo not shown) [Compound 142, N4-(6-chloroquinolin-3-yl)-N2-(3-((dimethylamino)methyl)-2,3-dihydrobenzo[b][1,4]dioxin-6-yl)pyrimidine-2,4-diamine] | 500 to 2000 | 500 to 2000
13 | CN(C)CC1COc2cc(Nc3nccc(Nc4cnc5ccccc5c4)n3)cnc2O1 (stereo not shown) [Compound 178, 2-{3-[(dimethylamino)methyl]-2,3-dihydro-1,4-dioxa-5-aza-7-naphthylamino}-4-(3-quinolylamino)pyrimidine] | ≤ 500 | ≤ 500
14 | CN(C)CC1COc2ccc(Nc3nccc(Nc4cnc5ccccc5c4)n3)cc2O1 (stereo not shown) [Compound 140, N2-(3-((dimethylamino)methyl)-2,3-dihydrobenzo[b][1,4]dioxin-6-yl)-N4-(quinolin-3-yl)pyrimidine-2,4-diamine] | ≤ 500 | ≤ 500
15 | CN(C)CC1COc2cc(Nc3nccc(Nc4cnc5ccc(Cl)cc5c4)n3)ccc2O1 (stereo not shown) [Compound 136, N4-(6-chloroquinolin-3-yl)-N2-(2-((dimethylamino)methyl)-2,3-dihydrobenzo[b][1,4]dioxin-6-yl)pyrimidine-2,4-diamine] | ≤ 500 | ≤ 500
16 | COc1cc(Nc2nccc(Nc3cnc4c(c3)CCC3(CCC3)C4)n2)ccc1O[C@H]1C[C@H](N(C)C)C1 [Compound 77, 4-(6′,8′-dihydro-5′H-spiro[cyclobutane-1,7′-quinolin]-3′-ylamino)-2-{3-methoxy-4-[(1r,3r)-3-(dimethylamino)cyclobutoxy]phenylamino}pyrimidine] | ≤ 500 | ≤ 500
17 | CN1CC(N2CCc3ccc(Nc4nccc(Nc5cnc6ccccc6c5)n4)cc32)C1 [Compound 139, N2-(1-(1-methylazetidin-3-yl)indolin-6-yl)-N4-(quinolin-3-yl)pyrimidine-2,4-diamine] | ≤ 500 | ≤ 500
18 | COc1cc(Nc2nccc(Nc3cnc4ccccc4c3)n2)ccc1N1CCC(N2CCOCC2)CC1 [Compound 3, 2-[3-methoxy-4-(4-morpholino-1-piperidyl)phenylamino]-4-(3-quinolylamino)pyrimidine] | ≤ 500 | ≤ 500
19 | CN(C)CC(=O)N1CCc2ccc(Nc3nccc(Nc4cnc5ccc(Cl)cc5c4)n3)cc21 [Compound 129, 1-(6-((4-((6-chloroquinolin-3-yl)amino)pyrimidin-2-yl)amino)indolin-1-yl)-2-(dimethylamino)ethan-1-one] | ≤ 500 | ≤ 500
20 | CN(C)CC(=O)N1CCc2cc(Nc3nccc(Nc4cnc5cc(F)c(F)cc5c4)n3)cnc21 [Compound 498, 1-{5-[4-(6,7-difluoro-3-quinolylamino)-2-pyrimidinylamino]-1,7-diaza-1-indanyl}-2-(dimethylamino)-1-ethanone] | 500 to 2000 | 500 to 2000
21 | CN(C)CC(=O)N1CCc2ccc(Nc3nccc(Nc4cnc5cc(F)c(F)cc5c4)n3)cc21 [Compound 147, 1-(6-((4-((6,7-difluoroquinolin-3-yl)amino)pyrimidin-2-yl)amino)indolin-1-yl)-2-(dimethylamino)ethan-1-one] | 500 to 2000 | 500 to 2000
22 | CN(C)CC1COc2cc(Nc3nccc(Nc4cnc5cc(F)c(F)cc5c4)n3)cnc2O1 (stereo not shown) [Compound 499, 4-(6,7-difluoro-3-quinolylamino)-2-{3-[(dimethylamino)methyl]-2,3-dihydro-1,4-dioxa-5-aza-7-naphthylamino}pyrimidine] | 500 to 2000 | 500 to 2000
23 | CN(C)CC1COc2cc(Nc3nccc(Nc4cnc5ccc(C(F)F)cc5c4)n3)ccc2O1 (stereo not shown) [Compound 497, 4-[6-(difluoromethyl)-3-quinolylamino]-2-{2-[(dimethylamino)methyl]-2,3-dihydro-1,4-benzodioxin-6-ylamino}pyrimidine] | ≤ 500 | ≤ 500
